Active and inactive are the calls of the source. How the calls were made is not given here.
Target: Caspase-6 (Homo sapiens) (UniProt P55212)
Experiment: inhibition of CASP6 peptide cleavage – biochemical, VEID-R110 fluorescence, cherry-pick, dose response (AID 720632)
Conditions: caspase-6, VEID-R110 fluorogenic substrate; at 23.5 µM (top of the series)

Chain of Caspase-6 (Homo sapiens) (P55212 24-179 limits assumed): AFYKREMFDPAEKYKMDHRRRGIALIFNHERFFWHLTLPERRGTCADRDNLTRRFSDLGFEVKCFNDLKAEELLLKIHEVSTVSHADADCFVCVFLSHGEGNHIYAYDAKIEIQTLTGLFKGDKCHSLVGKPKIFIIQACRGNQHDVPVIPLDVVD
Chain of Caspase-6 (Homo sapiens) (P55212 194-293 limits assumed): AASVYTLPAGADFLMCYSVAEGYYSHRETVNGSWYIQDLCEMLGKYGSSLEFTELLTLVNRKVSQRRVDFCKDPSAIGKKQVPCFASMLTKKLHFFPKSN

Row | SMILES | activity change, negative = inhibition
1 | CO[C@@H]1CN(C)C(=O)c2ccc(NC(=O)C3CC3)cc2OC[C@@H](C)N(Cc2cccc(F)c2)C[C@@H]1C | inactive
2 | N#C[C@@H]1[C@H](c2ccc(C3=CCCCC3)cc2)[C@@H](CO)N1S(=O)(=O)c1ccccc1 | inactive

Same assay, conditions: caspase-6, VEID-R110 fluorogenic substrate; at 26 µM (top of the series)

Row | SMILES | activity change, negative = inhibition
3 | COc1ccc(C(=O)Nc2cc(C(=O)O)cc(C(=O)O)c2)cc1Cl | inactive
4 | Nc1cc(C(Cl)=C(Cl)Cl)c(S(N)(=O)=O)cc1S(N)(=O)=O | inactive
5 | COc1ccc(N2CCN(C(=O)CCCn3c(=S)[nH]c4cc5c(cc4c3=O)OCO5)CC2)cc1 | inactive
6 | CCC(=O)N1CCC1(C)C(=O)Nc1cccc2cccnc12 (stereo unspecified) | inactive
7 | S=c1[nH]cc(-c2ccccc2)n1-c1cccc(Cl)c1 | inactive
8 | CCc1ccccc1OCC(=O)OCC(=O)N1CC(=O)Nc2ccccc21 | inactive
9 | Cc1nc2ccccc2c(=O)n1-c1ccc(NS(=O)(=O)c2ccc(F)cc2F)cc1 | inactive
10 | CC(C)OCCCNC(=O)c1c(N)n(CC2CCCO2)c2nc3ccccc3nc12 (stereo unspecified) | inactive
11 | Cc1cc2c(NC(=O)Nc3ccc(C(F)(F)F)cc3)cccc2nn1 | inactive
12 | O=S(=O)(c1cccc2cccnc12)N1CCN(c2ccc(F)cc2)CC1 | inactive
13 | CN1CC(=O)N2Cc3[nH]c4ccccc4c3C[C@H]2C1=O | inactive
14 | CC(=O)Nc1ccc(NC(=O)COC(=O)c2ccc([N+](=O)[O-])o2)cc1 | inactive
15 | O=C(NC1CCCCC1)N[C@H]1C=C[C@@H](CC(=O)N2CCOCC2)O[C@@H]1CO | inactive
16 | CN1C(=O)CCS(=O)(=O)C1c1ccc(Cl)c(Cl)c1 (stereo unspecified) | inactive
17 | O=S(=O)(NCc1cccnc1)c1ccc(Cl)cc1 | inactive
18 | CCCNC(=O)[C@@H]1[C@@H](CO)[C@@H]2Cn3c(ccc(-c4ccccc4)c3=O)[C@@H]2N1CC1CC1 | inactive
19 | CC(C)OCCCNC(=O)CN1C(=O)COc2ccc(S(=O)(=O)N3CCCCCC3)cc21 | inactive
20 | Cc1cc(C)nc(N2CCN(S(=O)(=O)c3ccc(F)cc3)CC2)n1 | inactive
21 | CCOc1ccc(-c2n[nH]c(=S)n2Cc2ccccc2)cc1 | inactive
22 | CC(C)(O)c1cn([C@@H]2C[C@@H]3O[C@@H](CO)CC[C@@H]3O[C@@H]2CCc2ccc(-c3ccncc3)cc2)nn1 | inactive
23 | O=C(Nc1nc2ccc([N+](=O)[O-])cc2s1)c1ccncc1 | inactive

Row | SMILES | activity change, negative = inhibition
24 | O=C(NCCCO)c1cc([N+](=O)[O-])cc2c1C=Cc1ccccc1O2 | inactive
25 | COc1cc(N)c2ncccc2c1Cl | inactive
26 | COc1ccc(S(=O)(=O)Nc2ccc(O)c(Sc3ncn[nH]3)c2)cc1 | inactive
27 | COc1cc(OC)c(OC)cc1CN1CCSCC1 | inactive
28 | O=c1nc2ccc(Cl)cn2c2ccc(S(=O)(=O)N3CCCCC3)cc12 | inactive
29 | Fc1cccc(Nc2nc(-c3ccncc3)nc3ccccc23)c1 | inactive
30 | O=C(Nc1cccc(C(=O)N2CCOCC2)c1)c1ccc([N+](=O)[O-])cc1 | inactive
31 | O=C(CCCn1c(=S)[nH]c2cc3c(cc2c1=O)OCO3)N1CCN(c2ccc(Cl)cc2)CC1 | inactive
32 | COc1ccc(OCCN2CCC(C(=O)NC(c3ccccn3)c3ccccc3OC)CC2)cc1 (stereo unspecified) | inactive
33 | COc1cc(N)c(Cl)cc1C(=O)NC1CCN(Cc2ccccc2)CC1 | inactive
34 | CCOC(=O)C1=C(COC(=O)c2ccc([N+](=O)[O-])s2)NC(=O)NC1C (stereo unspecified) | inactive
35 | CCC(=O)Nc1ccc2c(c1)OC[C@@H](C)NC[C@@H](C)[C@@H](OC)CN(C)C2=O | inactive
36 | COC(=O)[C@@H]1[C@@H](CO)[C@@H]2Cn3c(cccc3=O)[C@@H]2N1CC1CCOCC1 | inactive
37 | CCc1ccc(NS(=O)(=O)c2cc(OC)ccc2OC)cc1 | inactive
38 | CCCN1C[C@@H](C)[C@@H](OC)CN(C)C(=O)c2ccc(NC(=O)CC)cc2OC[C@H]1C | inactive
39 | COc1ccc(/C=N/NC(=O)c2ccccc2O)cc1CN1CCOCC1 | inactive
40 | O=C(N/N=C/c1coc2ccccc2c1=O)c1cc(Br)ccc1O | inactive
41 | O=C1CC(NS(=O)(=O)c2cc(F)ccc2F)CN1c1cccc(F)c1 (stereo unspecified) | inactive
42 | Cc1cc(C)cc(N(CC(=O)N2CCCCCC2)S(C)(=O)=O)c1 | inactive
43 | C#CC(C)(C)NC(=O)c1ccc(-c2ccccc2F)cc1 | inactive
44 | CCCC(=O)Nc1ccc2c(c1)OC[C@H](C)N(CCC)C[C@H](C)[C@@H](OC)CN(C)C2=O | inactive

Row | SMILES | activity change, negative = inhibition
45 | O=C(Nc1cc(Cl)cc(Cl)c1)c1coc(=O)c(Br)c1 | inactive
46 | COc1cc(CNC(C)c2ccccc2)c(Br)cc1OCC(N)=O (stereo unspecified) | inactive
47 | O=Cc1cscc1[B-](F)(F)F | inactive
48 | Cc1cccc(C)c1OCC(=O)NCc1ccccc1 | inactive
49 | O=C(N/N=C/c1cccnc1)c1cc(O)c(O)c(O)c1 | inactive
50 | CCOC(=O)C1CCCN(S(=O)(=O)c2nc3nc(C)cc(C)n3n2)C1 (stereo unspecified) | inactive
51 | COCC(=O)Nc1ccc2c(c1)OC[C@@H](C)N(CC1CC1)C[C@@H](C)[C@H](OC)CN(C)C2=O | inactive
52 | Cc1ccc(S(=O)(=O)n2c(C)nc3ccccc32)cc1 | inactive
53 | COP(=O)(OC)c1ccc(NCc2cc(O)ccc2O)cc1 | inactive
54 | CC(CNC(=O)c1ccc(OC2CCN(Cc3ccccn3)CC2)cc1)c1ccccc1 (stereo unspecified) | inactive
55 | COc1ccc(C(=O)N2CCN(CCCc3ccccc3)CC2)cc1OC | inactive
56 | OC[C@H]1[C@H](c2ccc(-c3ccc(F)cc3)cc2)[C@@H]2CN(Cc3cccnc3)CCCCN12 | inactive
57 | CO[C@H]1CN(C)C(=O)c2ccc(NC(=O)C3CC3)cc2OC[C@@H](C)N(CC2CCOCC2)C[C@@H]1C | inactive
58 | C/C=C/c1ccc([C@@H]2[C@H](CO)N(C(=O)C3CCCC3)C23CN(S(C)(=O)=O)C3)cc1 | inactive
59 | COc1cc(Br)cc(CN2CCN(C/C=C/c3ccccc3)CC2)c1O | inactive
60 | COc1cccc(C(NC(=O)C2CCN(CCCOc3ccccc3)CC2)c2ccccn2)c1 (stereo unspecified) | inactive
61 | CCOC(=O)N1CCN(C(=O)CN(C)S(=O)(=O)c2ccc3c(c2)c(=O)n(C)c(=O)n3C)CC1 | inactive
62 | O=C(NCc1ccncc1)c1ccc(OCc2ccccc2)cc1 | inactive
63 | Cc1nc2ccccc2n1CCOc1ccccc1 | inactive
64 | CCCCn1c(N)c(N(CCC(C)C)C(=O)COC(=O)c2ccc([N+](=O)[O-])s2)c(=O)[nH]c1=O | inactive
65 | O=C(NCC(=O)N1CC=C(c2ccccc2)CC1)c1ccccc1Br | inactive

Row | SMILES | activity change, negative = inhibition
66 | Cc1cnc(NC(=O)c2ccc3c(c2)OCCO3)s1 | inactive
67 | Cc1ccc(S(=O)(=O)N2CCC(C(=O)NCCCN3CCOCC3)CC2)cc1C | inactive
68 | C[C@@H]1CN([C@H](C)CO)C(=O)c2cc(Br)cnc2O[C@H]1CN(C)CC1CCCC1 | inactive
69 | O=C(Cc1ccc([N+](=O)[O-])cc1)c1c(O)cc(O)cc1O | inactive
70 | CCC(=O)Nc1ccc2c(c1)OC[C@@H](C)N(C(=O)CC)C[C@H](C)[C@H](OC)CN(C)C2=O | inactive
71 | Nc1ccc2cn[nH]c2c1 | inactive
72 | O=C(NC1CCCCC1)C(c1ccnc2ccccc12)N1CCc2ccccc2C1 (stereo unspecified) | inactive
73 | COc1ccccc1C(=O)Nc1ccc2c(c1)OC[C@H](C)N(CC1CC1)C[C@@H](C)[C@@H](OC)CN(C)C2=O | inactive
74 | CCC(C)(C)NC(=O)CN(C(=O)CNS(=O)(=O)c1ccc(F)cc1)c1ccc2c(c1)OCCO2 | inactive
75 | Oc1ccc(/C=N/N=C/c2ccc(O)c(O)c2)cc1O | inactive
76 | O=C(Nc1ccc2c(c1)[C@H]1C[C@H](CC(=O)N3CCCCC3)O[C@@H](CO)[C@H]1O2)Nc1ccccc1F | inactive
77 | CSCCC(NC(=O)COc1ccccc1)C(=O)N(C)CC(=O)Nc1c(C)cccc1C (stereo unspecified) | inactive
78 | CCC(=O)Nc1ccc2c(c1)OC[C@@H](C)N(C(=O)CC)C[C@H](C)[C@@H](OC)CN(C)C2=O | inactive
79 | CC(=O)Nc1ccc(C=NNc2ccc([N+](=O)[O-])cc2S(=O)(=O)Nc2ccccc2C(=O)O)cc1 | inactive
80 | O=C(NC(=O)c1csnn1)Nc1ccccc1Cl | inactive
81 | CS(=O)(=O)c1ccc(Nc2nc(C(N)COCc3ccccc3)cs2)cc1 (stereo unspecified) | inactive
82 | CCCC(=O)Nc1ccc2c(c1)OC[C@H](C)N(Cc1ccc(F)cc1)C[C@H](C)[C@@H](OC)CN(C)C2=O | inactive
83 | CO[C@@H]1CN(C)C(=O)c2ccc(NC(=O)C3CC3)cc2OC[C@@H](C)N(CC2CCOCC2)C[C@@H]1C | inactive
84 | CO[C@H]1CN(C)C(=O)c2cc(NC(=O)C3CC3)ccc2OC[C@H](C)N(C(=O)c2ccccc2)C[C@H]1C | inactive
85 | COc1cccc(N2C(=O)NC(=O)/C(=C/c3ccc([N+](=O)[O-])s3)C2=O)c1 | inactive
86 | CC(C)C(=O)N1CCN(c2ccccc2NC(=O)c2cccc3ccccc23)CC1 | inactive

From PubChem BioAssay AID720632 (Broad Institute, 2013)
